Test: Oxidation reducing capability for glyoxal by hydrogen peroxide-luminol chemiluminescence
Conditions: added to 1.0 mM, 10.0 mM and 100.0 mM glyoxal; compared to Comparative Example 1; n=3
Experimental: At the elapse of 30 seconds, 1000 μl of hydrogen peroxide was further mixed therein. Then, the chemiluminescence (CL) count (number of photons) was identified continuously for 150 seconds. Measurement was initiated when the CL counts came to 200 s per second (total time: 180 seconds). For the confirmation and measurement of the CL counts, a CL analyzer (product of TOHOKU ELECTRONIC INDUSTRIAL CO., LTD.) was employed. Using the dialysis solution preparation water of Example 1 and Comparative Example 1 obtained in Experiment 1, an evaluation experiment on the oxidation reducing capability for glyoxal was conducted. An evaluation experiment (n=3) employing hydrogen peroxide-luminol chemiluminescence similar to that of Experiment 1 was carried out, provided that the test liquid used was prepared by adding 45 μl of each dialysis solution preparation water into 45 μl of glyoxal with the concentration of 1.0 mM, 10.0 mM and 100.0 mM such that the total amount of the test liquid was 90 μl. For a reference example, a similar experiment (n=3) was carried out employing ascorbic acid (well known as a free radical scavenge substance). The test liquid was prepared such that the ascorbic acid was added to attain 1.0 μg/ml for […].

For `O=C1O[C@H]([C@@H](O)CO)C(O)=C1O` [ascorbic acid], which CL total count is on record?
The CL total count was “reduced significantly”.
